Results reported in patent US20090042987A1, “TREATMENT OF NEUROPATHIC PAIN” (priority 2007, published 2009).
“Also recorded” adds a separate entry of the source.

Experiments:
Format in all cases: in vivo, rat
STZ-diabetic rats [1] = assay: Behavioural observations / adverse effects in STZ-diabetic rats; details: gabapentin 100 mg/kg s.c., 7 consecutive twice-daily bolus doses
Description: Behavioural Observations. STZ-diabetic rats were monitored for visible and audible signs of distress throughout the testing period. The visible signs of distress included behavioural changes such as complete immobility, movement with abnormal gait, agitation, aggression, wet dog shakes, excessive grooming, restlessness with constant movement, repeated sudden movements or staring.

[2] = tested on: drug-naïve STZ-diabetic rats; assay: von Frey paw withdrawal thresholds, drug-naïve STZ-diabetic rats, Example 2
Description: (§1) Experimental Animals Ethical approval for this study was obtained from the Animal Experimentation Ethics Committee of The University of Queensland. Adult male Sprague-Dawley (SD) rats (222±4 g) were used for this study. Rats were housed in a temperature controlled room (21+2.0 C) with a 12/12 hour light/dark cycle. Food and water were available ad libitum. Initiation of drug administration occurred at 8-11 weeks post-STZ administration for rats in Experiment 1 (PCT-001) and at 10-12 weeks post-STZ administration for rats in Experiment 2 (PCT-007).
(§2) Test Article Tranilast was supplied by the Sponsor and stored at −4° C. until use. Gabapentin (100 mg/kg, dissolved in water for injection) was utilized as the positive control for this study.
(§3) Test Article and Vehicle Preparation Test article formulations were prepared freshly on the day of administration by weighing the appropriate amount of bulk powder and suspending it in the required volume of vehicle. Carboxymethyl cellulose ((CMC) 0.5% in water for injection) was utilized as the vehicle for this study.
(§4) Test Article Administration. […] The maximum oral gavage volume administered in this study was […]. 4.4
(§5) STZ-Diabetic Rat Model of Painful Diabetic Neuropathy. Painful diabetic neuropathy is a common long-term complication of diabetes in humans that develops as a result of a sustained biochemical nerve injury. […] Following the induction of diabetes with intravenous STZ at 70-80 mg/kg, it generally takes 6-8 wks for tactile allodynia, the defining symptom of PDN, to fully develop in both rat hindpaws.
(§6) Induction of STZ-Diabetes in Rats. On day 0, rats were anaesthetized with 3% isoflurane:97% O2 and a short polyethylene cannula (0.5 mm ID, 0.8 mm OD) was inserted into the jugular vein to facilitate the intravenous (i.v.) administration of a single dose of streptozotocin (STZ: 70-80 mg/kg). After STZ injection, the cannula was removed and the jugular vein was tied off and the wound was closed. Rats received subcutaneous benzylpenicillin (60 mg) prior to surgery to prevent infection and were kept warm during surgical recovery. Rats were housed singly prior to further experimentation and were monitored daily from the time of STZ administration with regard to general health and well-being.
(§7) Von Frey Assessment of Paw Withdrawal Thresholds. Calibrated von Frey filaments were used to determine the lowest mechanical threshold required to evoke a brisk paw withdrawal reflex in the rat hindpaws. Briefly, rats were transferred individually to wire mesh testing cages (20 cm×20 cm×20 cm) and allowed to acclimatize for approximately 10-20 min prior to von Frey testing. Commencing with the von Frey filament that produced the 6 g force, the filament was applied to the plantar surface of the hindpaw until the filament buckled slightly. Absence of a response after 3 s prompted use of the next filament of increasing weight. A withdrawal response within 3 s prompted use of the next filament of decreasing weight. Filaments used produced buckling weights of 2, 4, 6, 8, 10, 12, 14, 16, 18 and 20 g. […] Tactile allodynia is regarded as being fully developed when von Frey PWTs in the injured hindpaws are <6 g.
Restoring von-Frey PWTs in the hindpaws from <6 g to pre-STZ surgery levels (12±2 g) is the treatment goal representing full reversal of tactile allodynia. If drug treatment increases PWTs above pre-surgical baseline values (i.e. >12±2 g), such a response is classified as antinociception. Before administration of STZ, baseline von Frey measurements were assessed. Following STZ administration, baseline PWTs were assessed in the hindpaws at week 8-11 to confirm the development of diabetes-induced tactile allodynia.
Dose-Response Curve for Tranilast in Drug-Naive STZ-Diabetic Rats. […]

STZ-diabetic rats [3] = assay: von Frey paw withdrawal thresholds, STZ-diabetic rats given multiple dosing regimens (washout protocol), Example 1; details: gabapentin 100 mg/kg s.c.
Description: as §1, §2, §3, §4, §5, §6, §7
Restoring von-Frey PWTs in the hindpaws from <6 g to pre-STZ surgery levels (12±2 g) is the treatment goal representing full reversal of tactile allodynia. If drug treatment increases PWTs above pre-surgical baseline values (i.e. >12±2 g), such a response is classified as antinociception. Before administration of STZ, baseline von Frey measurements were assessed. Following STZ administration, baseline PWTs were assessed in the hindpaws at week 8-11 to confirm the development of diabetes-induced tactile allodynia. […]

[4] = gabapentin 100 mg/kg s.c., 7th twice-daily dose
[5] = gabapentin 100 mg/kg s.c., after 7th consecutive twice-daily dose

For `NCC1(CC(=O)O)CCCCC1` [Gabapentin], the “Adverse (behavioural) effects” value (STZ-diabetic rats [1]) was “no discernible adverse effects; also recorded: did not produce discernible adverse behavioural effects”, the “Baseline PWT thresholds assessed prior to dose 1, 3, 5 and 7” value ([2]; gabapentin 100 mg/kg s.c. twice-daily) was “not significantly different” and the “Mean (±SEM) von Frey Paw Withdrawal threshold assessed prior to dose” value ([2]; gabapentin 100 mg/kg s.c. twice-daily, prior to dose 1) was 3.7 ± 0.6 g. The “Mean (±SEM) von Frey Paw Withdrawal threshold assessed prior to dose” value ([2]; gabapentin 100 mg/kg s.c. twice-daily, prior to dose 3) was 4.0 ± 0 g, the “Mean (±SEM) von Frey Paw Withdrawal threshold assessed prior to dose” value ([2]; gabapentin 100 mg/kg s.c. twice-daily, prior to dose 5) was 4.7 ± 0.5 g and the “Mean (±SEM) von Frey Paw Withdrawal threshold assessed prior to dose” value ([2]; gabapentin 100 mg/kg s.c. twice-daily, prior to dose 7) was 4.5 ± 0.4 g. For the same molecule, the “Mean (±SEM) von Frey Paw Withdrawal threshold following the 7th consecutive dose” value ([2]; gabapentin 100 mg/kg s.c. twice-daily, time 0 h (pre-dose)) was 4.5 ± 0.2 g, the “Mean (±SEM) von Frey Paw Withdrawal threshold following the 7th consecutive dose” value ([2]; gabapentin 100 mg/kg s.c. twice-daily, time 0 h (pre-dose), listed as gabapentin) was 4.5 (±0.2) g and the “Mean (±SEM) von Frey Paw Withdrawal threshold following the 7th consecutive dose” value ([2]; gabapentin 100 mg/kg s.c. twice-daily, time 0.15 h) was 5.75 ± 0.2 g. The “Mean (±SEM) von Frey Paw Withdrawal threshold following the 7th consecutive dose” value ([2]; gabapentin 100 mg/kg s.c. twice-daily, time 0.5 h) was 6.25 ± 0.2 g, the “Mean (±SEM) von Frey Paw Withdrawal threshold following the 7th consecutive dose” value ([2]; gabapentin 100 mg/kg s.c. twice-daily, time 0.75 h) was 7.5 ± 0.6 g and the “Mean (±SEM) von Frey Paw Withdrawal threshold following the 7th consecutive dose” value ([2]; gabapentin 100 mg/kg s.c. twice-daily, time 1 h) was 8.5 ± 0.5 g. For the same molecule, the “Mean (±SEM) von Frey Paw Withdrawal threshold following the 7th consecutive dose” value ([2]; gabapentin 100 mg/kg s.c. twice-daily, time 1.25 h) was 9.0 ± 1.0 g, the “Mean (±SEM) von Frey Paw Withdrawal threshold following the 7th consecutive dose” value ([2]; gabapentin 100 mg/kg s.c. twice-daily, time 1.25 h, listed as gabapentin) was 9.0 (±1.0) g and the “Mean (±SEM) von Frey Paw Withdrawal threshold following the 7th consecutive dose” value ([2]; gabapentin 100 mg/kg s.c. twice-daily, time 1.5 h) was 9.0 ± 0.7 g. The “Mean (±SEM) von Frey Paw Withdrawal threshold following the 7th consecutive dose” value ([2]; gabapentin 100 mg/kg s.c. twice-daily, time 2 h) was 7.0 ± 0.4 g, the “Mean (±SEM) von Frey Paw Withdrawal threshold following the 7th consecutive dose” value ([2]; gabapentin 100 mg/kg s.c. twice-daily, time 3 h) was 6.5 ± 0.3 g and the “Relief of tactile allodynia in the hindpaws” value ([2]; gabapentin 100 mg/kg s.c., 7 consecutive twice-daily doses) was “significant relief of tactile allodynia”. For the same molecule, the “Mean duration of action” value [2, 4] was over 3 h, the “Time of peak anti-allodynia post-dosing” value [2, 4] was 1 to 1.5 h and the “Mean (±SEM) AUC (area under the normalized PWT versus time curve)” value [2, 5] was 8.3 ± 0.4. For the same molecule, the “Mean (±SEM) Peak response (PWT)” value [2, 5] was 9.0 ± 1.0, the “Mean (±SEM) % MPR at peak” value ([2]; gabapentin 100 mg/kg s.c., after 7th consecutive twice-daily dose, 100% MPR = full reversal of tactile allodynia) was 75.8 ± 17.2% and the “% MPR at the time of peak effect compared with vehicle” value ([2]; gabapentin s.c. 100 mg/kg, 7th consecutive twice-daily dose) was “significantly greater than that for vehicle”. The “Relief of tactile (mechanical) allodynia in the hindpaws” value (STZ-diabetic rats [3]; 7 consecutive twice-daily doses, multiple dosing regimens) was “significant relief of tactile (mechanical) allodynia”, the “Mean (±SEM) PWT at the mean time of peak response” value (STZ-diabetic rats [3]; 7th twice-daily dose, 1 h post-dosing) was 11.0 (±1.0) g and the “Time of peak anti-allodynia post-dosing” value (STZ-diabetic rats [3]; 7th twice-daily dose, multiple dosing regimens) was 0.75 to 1.25 h. For the same molecule, the “Mean (±SEM) PWT pre-dose” value (STZ-diabetic rats [3]; 7th twice-daily dose, pre-dose) was 4.5 (±0.5) g.
